Data as given in patent US20040248953A1, “3-Arylsulfanyl and 3-heteroarylsulfanyl substituted benzo[b]thiophenes as therapeutic agents” (priority 2003, published 2004).

biological target: T1, PI3Kγ (Homo sapiens, UniProt P48736); experiment: PI3Kγ in vitro kinase assay (32P-ATP, PIP2 lipid micelles, filter plate); type: biochemical; conditions: purified recombinant p101/p110γ protein with G protein β1/γ2 subunits; 20 μM ATP; 25 μM PIP2; 20 minutes at room temperature
T1 construct: HA; made in house; host or cells: Spodoptera frugiperda (Sf9) cells, baculovirus coinfection
T1 sequence (P48736 whole entry, species assumed): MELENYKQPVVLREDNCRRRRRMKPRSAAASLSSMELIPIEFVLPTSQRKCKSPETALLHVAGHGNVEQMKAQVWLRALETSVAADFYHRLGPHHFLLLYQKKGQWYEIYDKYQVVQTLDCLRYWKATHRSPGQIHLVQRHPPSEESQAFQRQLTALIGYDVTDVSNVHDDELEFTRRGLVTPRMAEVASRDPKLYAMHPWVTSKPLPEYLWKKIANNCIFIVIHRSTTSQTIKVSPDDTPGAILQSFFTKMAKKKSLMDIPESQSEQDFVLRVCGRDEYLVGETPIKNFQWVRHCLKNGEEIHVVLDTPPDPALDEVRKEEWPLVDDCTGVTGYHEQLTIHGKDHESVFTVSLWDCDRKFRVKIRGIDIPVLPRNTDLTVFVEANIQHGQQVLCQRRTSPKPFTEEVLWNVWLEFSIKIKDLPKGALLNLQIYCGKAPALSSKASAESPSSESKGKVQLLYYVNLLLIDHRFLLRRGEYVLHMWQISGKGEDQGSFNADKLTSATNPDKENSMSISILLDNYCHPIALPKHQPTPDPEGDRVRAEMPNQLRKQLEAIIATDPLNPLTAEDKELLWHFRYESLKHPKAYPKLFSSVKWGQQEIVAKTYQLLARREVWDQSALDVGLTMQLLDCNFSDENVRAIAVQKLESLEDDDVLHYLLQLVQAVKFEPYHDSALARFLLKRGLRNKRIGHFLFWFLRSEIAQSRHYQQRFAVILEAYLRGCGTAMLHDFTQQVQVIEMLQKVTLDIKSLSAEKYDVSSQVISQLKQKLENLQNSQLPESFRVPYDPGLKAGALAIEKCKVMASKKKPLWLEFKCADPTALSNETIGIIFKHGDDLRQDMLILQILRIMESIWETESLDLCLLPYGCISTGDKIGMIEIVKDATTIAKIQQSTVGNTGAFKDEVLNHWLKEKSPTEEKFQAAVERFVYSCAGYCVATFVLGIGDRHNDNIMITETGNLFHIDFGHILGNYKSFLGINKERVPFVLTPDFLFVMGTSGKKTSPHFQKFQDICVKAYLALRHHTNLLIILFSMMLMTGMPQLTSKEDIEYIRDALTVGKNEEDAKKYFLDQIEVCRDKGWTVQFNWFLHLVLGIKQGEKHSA
T1 sequence (Q8WYR1 whole entry partner, species assumed): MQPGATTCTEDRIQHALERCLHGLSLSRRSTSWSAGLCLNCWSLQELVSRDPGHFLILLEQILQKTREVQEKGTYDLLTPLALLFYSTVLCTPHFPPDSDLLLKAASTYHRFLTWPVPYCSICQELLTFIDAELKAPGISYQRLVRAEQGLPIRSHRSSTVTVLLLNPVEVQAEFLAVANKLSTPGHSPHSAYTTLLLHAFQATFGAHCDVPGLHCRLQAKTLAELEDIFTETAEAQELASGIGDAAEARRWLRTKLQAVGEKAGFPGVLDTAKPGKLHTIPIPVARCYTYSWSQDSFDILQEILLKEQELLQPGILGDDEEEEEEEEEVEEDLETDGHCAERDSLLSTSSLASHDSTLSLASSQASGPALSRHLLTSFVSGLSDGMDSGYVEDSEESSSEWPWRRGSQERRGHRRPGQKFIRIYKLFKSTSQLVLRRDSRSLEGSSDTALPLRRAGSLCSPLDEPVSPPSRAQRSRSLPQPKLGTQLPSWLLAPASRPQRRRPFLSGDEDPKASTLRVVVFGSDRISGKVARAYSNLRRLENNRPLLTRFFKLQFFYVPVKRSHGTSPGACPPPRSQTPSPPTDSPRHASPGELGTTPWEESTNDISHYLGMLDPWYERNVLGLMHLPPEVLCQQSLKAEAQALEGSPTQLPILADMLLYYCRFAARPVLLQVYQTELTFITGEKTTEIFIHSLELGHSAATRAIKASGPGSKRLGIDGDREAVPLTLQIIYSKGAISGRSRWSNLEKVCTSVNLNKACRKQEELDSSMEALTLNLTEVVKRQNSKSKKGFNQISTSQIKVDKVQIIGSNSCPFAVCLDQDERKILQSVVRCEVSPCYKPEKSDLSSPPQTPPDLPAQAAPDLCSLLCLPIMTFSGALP
Procedure: Spodtera frugiperda cells, grown in ESF921 media, were coinfected with baculovirus expressing a glu-tagged p101 and baculovirus expressing an HA-tagged p110γ, at a 3:1 ratio of p101 baculovirus to p110γ baculovirus. Sf9 cells were grown to 1×10^7 total cells/mL in 10 L bioreactors and harvested 48-72 hours post infection. Samples of infected cells were then tested for expression of p101/p110γ PI3 kinase by immunoprecipitation and Western Blot analysis methods (see below). To purify PI3Kγ, 4 volumes of room temperature hypotonic lysis buffer (1 mM MgCl2, 1 mM DTT, 5 mM EGTA, 1 mM Pefabloc, 0.5 μM aprotinin, 5 μM leupeptin, 2 μM pepstatin, 5 μM E64, pH 8) per gram of cell paste, was poured onto frozen cell pellets with stirring, then lysed in a nitrogen “bomb” at 400 psi (599HC […], Parr Instrument Co, Moline, Ill.). NaCl was added to 150 mM, and sodium cholate was added to 1% and mixed for another 45 minutes. The lysates were clarified by centrifugation for 25 minutes at 14,000 rpm. The lysates were then loaded over anti-glu-linked Protein-G Sepaharose beads (Covance Research Products, Richmond, Calif.) using 20 mL resin/50 g cell paste. The column was washed with 15 volumes of wash buffer (1 mM DTT, 0.2 mM EGTA, 1 mM Pefabloc, 0.5 μM aprotinin, 5 μM leupeptin, 2 μM pepstatin, 5 μM E64, 150 mM NaCl, 1% sodium cholate, pH 8). PI3Kγ was eluted with 6 column volumes of wash buffer that contain 100 μg/mL of a peptide that competes for binding of the glu tag. The column fractions with the eluted protein (determined by taking OD280 readings) were collected and dialyzed in 0.2 mM EGTA, 1 mM DTT, 1 mM Pefabloc, 5 μM leupeptin, 0.5% sodium cholate, 150 mM NaCl, and 50% glycerol, pH 8. The fractions were stored at -80° C. until further use. Spodtera frugiperda cells were coinfected with baculovirus expressing a glu-tagged G protein β1 and baculovirus expressing a […], at a 1:1 ratio of glu-tagged G protein β1 baculovirus to G protein β2 baculovirus. Sf9 cells are grown in 10 L bioreactors and harvested 48-72 hours post infection. Samples of infected cells were tested for G protein β1/β2 expression by Western Blot analysis, as described below. Cell lysates were homogenized and loaded onto a column of glu-tagged beads as in Biological Example 1 and competed off the column with a glu peptide and processed as described in Biological Example 1. The inhibitory properties of the compounds in Table 1 were assayed in an in vitro PI3K assay. In a 96-well polypropylene plate, each well was spotted with […] of 50 times the desired final concentration of compound in DMSO. Purified recombinant p101/p110γ protein (0.03 μg; 2.7 nM) and G protein β1/γ2 subunits (0.09 μg; 57.7 nM) for each reaction was combined in the assay buffer (30 mM HEPES, 100 mM NaCl, 1 mM EGTA, and 1 mM DTT). ATP and [γ-^32P-ATP] (0.09 μCi) were added to this mixture so that the final ATP concentration in the reaction was 20 μM. Lipid micelles were formed by sonicating phosphatidylinositol4,5-diphosphate (PIP2), phosphatidylethanolamine (PE), and Na-cholate in the assay buffer for 10 minutes, adding MgCl2 and incubating on ice for 20 minutes, for final concentrations of 25 μM PIP2, 300 μM PE, 0.02% Na-cholate, and 10 mM MgCl2 in the reaction. The reactions were started by adding equal volumes lipid and enzyme mixture in a total volume of 50 μL, allowed to run for 20 minutes at room temperature, and stopped with 100 μL 75 mM H3PO4. The lipid product was transferred to a glass fiber filter plate and washed with 75 mM H3PO4 several times. The presence of radioactive lipid product (PIP3) was measured by adding Wallac Optiphase mix to each well and counting in a Wallac 1450 Trilux plate reader (PerkinElmer Life Sciences Inc., Boston, Mass. 02118). The IC50 for each compound tested is reported in μM in Table 1: […]

| Compound | IC50 [µM] |
| --- | --- |
| COc1cc2c(Sc3ccc(CCC(=O)O)cc3)c(C(=O)Nc3nnn[nH]3)sc2cc1C [Example 57, 3-{4-[5-Methoxy-6-methyl-2-(1H-tetrazol-5-ylcarbamoyl)-benzo[b]thiophen-3-ylsulfanyl]-phenyl}-propionic acid] | 0.575 |
| COc1cc2sc(C(=O)Nc3nnn[nH]3)c(Sc3ccc(C(=O)O)cc3)c2cc1C [Example 58, 4-[6-Methoxy-5-methyl-2-(1H-tetrazol-5-ylcarbamoyl)-benzo[b]thiophen-3-ylsulfanyl]-benzoic acid] | 1.34 |
| COc1cc2sc(C(=O)Nc3nnn[nH]3)c(Sc3ccc(CC(=O)O)cc3)c2cc1C [Example 59, {4-[6-Methoxy-5-methyl-2-(1H-tetrazol-5-ylcarbamoyl)-benzo[b]thiophen-3-ylsulfanyl]-phenyl}-acetic acid] | 1.32 |
| COc1cc2sc(C(=O)Nc3nnn[nH]3)c(SCc3ccc(C(=O)O)cc3)c2cc1C [Example 60, 4-[6-Methoxy-5-methyl-2-(1H-tetrazol-5-ylcarbamoyl)-benzo[b]thiophen-3-ylsulfanylmethyl]-benzoic acid] | 0.495 |
| COc1cc2sc(C(=O)Nc3nnn[nH]3)c(Sc3ccc(CC(=O)O)cc3)c2cc1OC [Example 61, {4-[5,6-Dimethoxy-2-(1H-tetrazol-5-ylcarbamoyl)-benzo[b]thiophen-3-ylsulfanyl]-phenyl}-acetic acid] | 2.61 |
| COc1cc2sc(C(=O)Nc3nnn[nH]3)c(Sc3ccc(CCC(=O)O)cc3)c2cc1OC [Example 62, 3-{4-[5,6-Dimethoxy-2-(1H-tetrazol-5-ylcarbamoyl)-benzo[b]thiophen-3-ylsulfanyl]-phenyl}-propionic acid] | 2.67 |
| CCOc1ccc2sc(C(=O)Nc3nnn[nH]3)c(Sc3ccc(CC(=O)O)cc3)c2c1 [Example 63, {4-[5-Ethoxy-2-(1H-tetrazol-5-ylcarbamoyl)-benzo[b]thiophen-3-ylsulfanyl]-phenyl}-acetic acid] | 2.71 |
| CCOc1ccc2sc(C(=O)Nc3nnn[nH]3)c(Sc3ccc(CCC(=O)O)cc3)c2c1 [Example 64, 3-{4-[5-Ethoxy-2-(1H-tetrazol-5-ylcarbamoyl)-benzo[b]thiophen-3-ylsulfanyl]-phenyl}-propionic acid] | 3.62 |
| COCc1cc2sc(C(=O)Nc3nnn[nH]3)c(Sc3ccccc3)c2cc1OC [Example 65, 5-Methoxy-6-methoxymethyl-3-phenylsulfanyl-benzo[b]thiophene-2-carboxylic acid(1H-tetrazol-5-yl)-amide] | 0.315 |
| COc1cc2sc(C(=O)Nc3nn[nH]n3)c(SCc3ccc(C#N)cc3)c2cc1OC [Example 66, 3-(4-Cyano-benzylsulfanyl)-5,6-dimethoxy-benzo[b]thiophene-2-carboxylic acid(2H-tetrazol-5-yl)-amide] | 1.17 |
